{
  "source": "patent US20090221615A1",
  "about": "“COMBINATION ANTI-CANCER AGENTS” (priority 2008, published 2009)",
  "key": {"[1]": {"assay": "Body weight change in the H460 xenograft study", "type": "in vivo, CD-1 nude mice", "conditions": "28-day period; Pemetrexed i.p. 200 mg/kg, Lucanthone oral 80 mg/kg, once every 4 days x7; vehicles −2.9%", "procedure": "(§1) Methods: Groups of CD-1 nude mice were xenografted subcutaneously with human H460 non-small cell lung carcinoma cells. Treatments were initiated when tumor growth reached approximately 130 mm^3. Treatments were administered 7 times at frequency of once every 4 days and included vehicles, Pemetrexed given intraperitoneally at 200 mg/kg, Lucanthone given orally at 80 mg/kg, and the combinations of Pemetrexed and Lucanthone at the same doses. The tumor growths and body weight change were followed for 28 days."}, "[2]": {"test_system": "human H460 non-small cell lung carcinoma cells", "assay": "H460 non-small cell lung carcinoma xenograft tumor growth in CD-1 nude mice", "type": "in vivo", "conditions": "28 days, 7 treatments once every 4 days, Pemetrexed i.p. 200 mg/kg, Lucanthone oral 80 mg/kg", "procedure": "as §1"}},
  "data": [
    {"smiles": "Nc1nc2[nH]cc(CCc3ccc(C(=O)N[C@@H](CCC(=O)O)C(=O)O)cc3)c2c(=O)[nH]1", "note": "[Pemetrexed, N-[4-[2-(2-amino-4,7-dihydro-4-oxo-1H-pyrrolo[2,3-d]pyrimidin-5-yl)ethyl]-benzoyl]-L-glutamic acid]", "values": [
      {"measurement": "body weight changes excluding the tumor weights", "setting": "[1]", "value": "−0.9", "unit": "%"},
      {"measurement": "growth inhibition compared to the vehicle-treated group", "setting": "[2]", "value": 33, "unit": "%"},
      {"measurement": "fold of increases of the tumor volume", "setting": "[2]; vehicles 42", "value": 28, "unit": "fold"}
    ]}
  ]
}
